Results published in patent publication US20060014723A1, “Anti-parasitic uses of borinic acid complexes” (priority 2004, published 2006).
In brackets after ≈: the same amount, converted by molar mass.

Legend:
[1] = system: Leishmania donovani strain MHOM/ET1671L82; assay: Leishmaniasis in vitro screening model (axenic amastigotes, Alamar Blue); type: cell-based
Procedure: The Leishmania donovani strain MHOM/ET1671L82 (obtained from Dr. S. Croft, London School of Hygiene and Tropical Medicine) is used. The strain is maintained in the Syrian Golden hamster. Amastigotes are collected from the spleen of an infected hamster. Amastigotes are grown in axenic culture at 37° C. in SM medium (Cunningham I., J. Protozoal. 24:325-329, 1977) at pH 5.4 supplemented with 10% heat-inactivated fetal bovine serum (FBS) under an atmosphere of 5% CO2 in air.
(§1) After use the stocks are kept at −20° C. For the assays, the compound is further diluted to the appropriate concentration using complete medium.
Assays are performed in 96-well flat-bottom microtiter plates (Costar, Corning Inc.), each well containing 100 μl of culture medium with 105 amastigotes from axenic culture with or without a serial drug dilution. Concentration of amastigotes is determined in a CASY cell analyzing system (Scharfe System, Reutlingen, Germany). Before the amastigotes are counted, the parasite culture is passed twice through a 22-gauge needle to break up clusters of amastigotes.
The highest concentration for the test compounds is 90 μg/mL. Seven 3-fold dilutions are used, covering a range from […]. Each drug is tested in duplicate. Active compounds are tested twice for confirmation. After 72 hours of incubation, the plates are inspected under an inverted microscope to assure growth of the controls and sterile conditions.
(§2) Ten μL of Alamar Blue (12.5 mg resazurin dissolved in 100 mL distilled water) are then added to each well and the plates are incubated for another 2 hours. Then the plates are read with a Spectramax GEMINI XS microplate fluorometer (Molecular Devices Cooperation, Sunnyvale, Calif., USA) using an excitation wave length of 536 nm and an emission wave length of 588 nm.
Data are analyzed using the microplate reader software Softmax Pro (Molecular Devices Cooperation, Sunnyvale, Calif., USA). Decrease of fluorescence (i.e. inhibition) is expressed as percentage of the fluorescence of control cultures and plotted against the drug concentrations. The IC50 value is calculated from the sigmoidal inhibition curve by the software program.

[2] = system: T. b. rhodesiense STIB 900; assay: African sleeping sickness in vitro screening model (Alamar Blue); type: cell-based, Trypanosoma brucei rhodesiense; conditions: for IC50: Trypanosoma brucei
Procedure: Bloodstream from trypomastigotes of the strains (a) and (c) are maintained in Minimal Essential Medium (MEM) with Earle's salts supplemented according to Baltz, et al., (EMBO J. 4:1273-1277, 1985) with 25 mM N-2-hydroxyethylpiperazine-N′-2-ethane-sulphonic acid (HEPES), 1 g/L additional glucose, 1% MEM non-essential amino acids (100×), 0.2 mM 2-mercaptoethanol, 2 mM sodium pyruvate, 0.1 mM hypoxanthine and 15% heat-inactivated horse serum.
All cultures and assays are conducted at 37° C. under an atmosphere of 5% CO2 in air.
After use the stocks are kept at −20° C. For the assays, the compound is further diluted in serum-free culture medium and finally to the appropriate concentration in complete medium without hypoxanthine.
Assays are performed in 96-well microtiter plates, each well containing 100 μL of culture medium with 8×10^3 bloodstream forms with or without a serial drug dilution. The highest concentration for the test compounds is 90 μg/mL. Seven 3-fold drug dilutions are used, covering a range from 90 μg/mL to 0.123 μg/mL. Each drug is tested in duplicate. Active compounds are tested twice for confirmation. The final result is the mean of the four individual IC50 values. After 72 hrs of incubation, the plates are inspected under an inverted microscope to assure growth of the controls and sterile conditions.
as §2, with “are now” for “are then”, “excitation wavelength” for “excitation wave length”
IC50 values are determined using the microplate reader software Softmax Pro (Molecular Devices Cooperation, Sunnyvale, Calif., USA).

[3] = system: Trypanosoma cruzi Tulahuen C2C4 strain; assay: Chagas disease in vitro screening model (beta-galactosidase strain in L-6 cells); type: cell-based
Procedure: Trypanosoma cruzi Tulahuen C2C4 strain, containing the β-galactosidase (Lac Z) gene (Buckner et al., Antimicrob. Agents Chemother 40:2592-2597, 1996) is used for this study.
The infective amastigote and trypomastigote stages are cultivated in L-6 cells (a rat skeletal myoblast cell line) in RPMI 1640 medium supplemented with 2 mM L-glutamine and 10% heat-inactivated fetal bovine serum in 12.5 cm^2 tissue culture flasks. Amastigotes develop intracellularly, differentiate into trypomastigotes, and leave the host cell. These trypomastigotes infect new L-6 cells and are the stages used to initiate an infection in the assay. All cultures and assays are conducted at 37° C. under an atmosphere of 5% CO2 in air.
as §1
Assays are performed in sterile 96-well microtiter plates, each well containing 100 μl medium with 2×10^3 L-6 cells. After 24 hours, […] of a trypanosome suspension containing 5×10^3 trypomastigote bloodstream forms from culture are added to the wells. Forty-eight hours later, the medium is removed from the wells and replaced by […] fresh medium, with or without a serial drug dilution. At this point the L-6 cells should be infected with amastigotes and no free trypomastigotes should be in the medium. Seven 3-fold drug dilutions are used, covering a range from 90 μg/mL to 0.123 μg/mL. Each drug is tested in duplicate. Active compounds are tested twice for confirmation. After 96 hours of incubation the plates are inspected under an inverted microscope to assure growth of the controls and sterility.
Then the substrate CPRG/Nonidet (50 μl) is added to all wells. A colour reaction will become visible within 2-6 hours and can be read photometrically at 540 nm. Data are transferred into a graphics program (e.g., EXCEL), sigmoidal inhibition curves determined and IC50 values calculated.

Compound	L. donovani IC50 [1]	T. b. rhodesiense IC50 [2]	T. cruzi IC50 [3]	IC50 ([1]; Leishmania donovani, read-out: L. donovani IC50)	IC50 [2]	IC50 ([3]; Trypanosoma cruzi, TULAHUEN, L6, read-out: T. cruzi IC50)
CN(C)Cc1ccc(B(Oc2cccc3cccnc23)c2ccc(Cl)cc2)cc1.Cl [Compound 105]	0.72 µg/mL	0.41 µg/mL	4.2 µg/mL	–	–	–
N#Cc1ccc(B(Oc2cccc3cccnc23)c2ccc(C#N)cc2)cc1 [Compound 88]	0.76 µg/mL	0.41 µg/mL	1.385 µg/mL	–	–	–
Cc1ccc(B(Oc2cccc3cccnc23)c2ccco2)cc1Cl [Compound 103]	0.35 µg/mL	0.38 µg/mL	4.4 µg/mL	–	–	–
Cc1cc(Cl)ccc1B(Oc1cccc2cccnc12)c1ccc(Cl)cc1C [Compound 109]	0.75 µg/mL	0.405 µg/mL	4.35 µg/mL	–	–	–
Cc1ccc(B(OC(=O)c2ncccc2C(=O)O)c2ccc(C)c(Cl)c2)cc1Cl [Compound 128]	0.61 µg/mL	8 µg/mL	1.75 µg/mL	–	–	–
Cc1cccc(B(Oc2cccc3cccnc23)c2cccc(C)c2)c1 [Compound 86]	0.59 µg/mL	0.35 µg/mL	3 µg/mL	–	–	–
CN(C)Cc1ccc(B(Oc2cccc3cccnc23)c2cccc(C#N)c2)cc1.O=C(O)/C=C/C(=O)O [Compound 112]	0.98 µg/mL	0.44 µg/mL	4.2 µg/mL	–	–	–
Cc1ccc(B(OC(=O)c2ncccc2O)c2ccc(C)c(Cl)c2)cc1Cl [Compound 127, Bis(3-Chloro-4-methylphenyl)borinic acid 3-hydroxypicolinate ester]	0.36 µg/mL	2.5 µg/mL	6.3 µg/mL	–	–	–
N#Cc1cccc(B(Oc2cccc3cccnc23)c2cc(F)cc(C(F)(F)F)c2)c1 [Compound 121]	0.53 µg/mL	0.43 µg/mL	4.95 µg/mL	–	–	–
C=CB(Oc1cccc2cccnc12)c1cccnc1 [Compound 94]	0.55 µg/mL	0.495 µg/mL	2.8 µg/mL	–	–	–
N#Cc1cccc(B(Oc2cccc3cccnc23)c2cccnc2)c1 [Compound 102]	0.37 µg/mL	0.49 µg/mL	4.2 µg/mL	–	–	–
C=CB(Oc1cccc2cccnc12)c1c(C)noc1C [Compound 118]	0.44 µg/mL	0.265 µg/mL	3.5 µg/mL	–	–	–
C=CB(Oc1cccc2cccnc12)c1ccc(CN(C)C)cc1 [Compound 119]	0.36 µg/mL	0.51 µg/mL	3.8 µg/mL	–	–	–
Fc1cccc(B(Oc2cccc3cccnc23)c2ccc(Cl)c(Cl)c2)c1 [Compound 46, (3,4-Dichlorophenyl)(3-fluorophenyl)borinic acid quinolin-8-yl ester]	–	–	–	0.44 µg/mL (≈ 1.11 µM)	0.51 µg/mL (≈ 1.29 µM)	0.84 µg/mL (≈ 2.12 µM)
C=CB(Oc1cccc2cccnc12)c1ccc(CN(C)C)cc1.Cl [Compound 124]	0.3 µg/mL	0.445 µg/mL	3.95 µg/mL	–	–	–
Cc1ccc(B(OC(=O)c2ncccc2N)c2ccc(C)c(Cl)c2)cc1Cl [Compound 129]	1.6 µg/mL	4.4 µg/mL	0.855 µg/mL	–	–	–
Fc1ccc(B(Oc2cccc3cccnc23)c2ccc(Cl)cc2)cc1F [Compound 114]	0.71 µg/mL	0.41 µg/mL	4 µg/mL	–	–	–
CSc1cccc(B(Oc2cccc3cccnc23)c2cccc(Cl)c2)c1 [Compound 107]	0.42 µg/mL	0.365 µg/mL	4.1 µg/mL	–	–	–
Clc1ccc(B(Oc2c(I)cc(Cl)c3cccnc23)c2ccc(Cl)cc2)cc1 [Compound 90]	0.15 µg/mL	1.4 µg/mL	3.25 µg/mL	–	–	–
CN(C)CCOc1ccc(B(Oc2cccc3cccnc23)c2ccc(Cl)cc2)cc1 [Compound 104]	0.71 µg/mL	1.24 µg/mL	4.3 µg/mL	–	–	–
CN(C)Cc1ccc(B(Oc2cccc3cccnc23)c2ccc(Cl)cc2)cc1.O=C(O)/C=C/C(=O)O [Compound 106]	0.69 µg/mL	0.385 µg/mL	4.25 µg/mL	–	–	–
C=CB(Oc1cccc2cccnc12)c1ccco1 [Compound 117]	0.63 µg/mL	0.295 µg/mL	3.65 µg/mL	–	–	–
CN(C)Cc1ccc(B(Oc2cccc3cccnc23)c2ccc(F)c(F)c2)cc1 [Compound 110]	0.61 µg/mL	0.38 µg/mL	4.7 µg/mL	–	–	–
N#Cc1cccc(B(OC(=O)c2ncccc2O)c2cccnc2)c1 [Compound 133]	2.2 µg/mL	0.86 µg/mL	10.4 µg/mL	–	–	–
CC1(C)COC(c2cccc(B(Oc3cccc4cccnc34)c3cccc(Cl)c3)c2)=N1 [Compound 18, (3-Chlorophenyl)[3-(4,5-dihydro-4,4-dimethyloxazol-2yl)phenyl]borinic acid quinolin-8-yl ester]	–	–	–	–	1.7 µg/mL (≈ 3.86 µM)	–
C=CB(Oc1cccc2cccnc12)c1ccc(F)nc1 [Compound 101]	0.34 µg/mL	0.3 µg/mL	3.95 µg/mL	–	–	–
N#Cc1cccc(B(Oc2cccc3cccnc23)c2cc(F)ccc2F)c1 [Compound 113]	0.57 µg/mL	0.39 µg/mL	4.25 µg/mL	–	–	–
Clc1cccc(B(Oc2cccc3cccnc23)c2cccnc2)c1 [Compound 99]	0.49 µg/mL	0.345 µg/mL	4.45 µg/mL	–	–	–
O=C(OB(c1ccc(Cl)cc1)c1ccc(Cl)cc1)c1cccc(O)n1 [Compound 132]	14.1 µg/mL	45.7 µg/mL	23.4 µg/mL	–	–	–
Fc1ccc(B(Oc2c(Cl)cc(Cl)c3cccnc23)c2ccc(Cl)cc2)cc1 [Compound 92]	0.052 µg/mL	1.1 µg/mL	2.55 µg/mL	–	–	–
